Converted amounts (≈) assume the structure as drawn. “And” between values parts separate entries of the source, which are not always exact repeats. Equal entries are not always repeated. Where two headings read alike, the source gives them in different places. Each block holds one molecule with its values, some of them ahead of it. Primed or numbered codes have the meaning given here. Where no end group is shown, it is not given here. FITC″ = fluorescein isothiocyanate label; FITC′ = not defined here
B1: FITC-labeled αIIb peptide from the cytoplasmic domain of integrin αIIb (peptide)
peptide: Ac-LVLAMWKVGFFKRNRK-{FITC′}
notes: integrin αIIb, stretch at the start of the cytoplasmic domain; last printed residue of the peptide; The C-terminal K probably carries the FITC (surmised); also called F-αIIb; F-αIIb peptide; source: synthetic peptide (custom synthesized, Peptide 2.0, purity 95.83%)
B2: GST-tagged recombinant CIB1 (calcium- and integrin-binding protein 1) (natural protein)
chain: SKELLAEYQDLTFLTKQEILLAHRRFCELLPQEQRSVESSLRAQVPFEQILSLPELKANPFKERICRVFSTSPAKDSLSFEDFLDLLSVFSDTATPDIKSHYAFRIFDFDDDGTLNREDLSRLVNCLTGEGEDTRLSASEMKQLIDNILEESDIDRDGTINLSEFQHVISRSPDFASSFKIVL
notes: Printed molecular weight of GST-CIB1 is 48 kDa against 26 kDa for GST alone, which would fit whole CIB1 (surmised); Vector family pGEX-4T is named for the empty vector; also called GST-CIB1; CIB1-GST

Legend:
[1] = molecular target: T1, CIB1 and αIIb interaction (CIB1-GST : F-αIIb peptide) (Homo sapiens, UniProt Q99828); experiment: FP assay, 1536-well qHTS format (primary and confirmatory screen); type: binding; settings: over the concentration range tested
T1 construct: made in house; host or cells: BL-21 plus RIL cells (E. coli)
T1 sequence (Q99828 1-191): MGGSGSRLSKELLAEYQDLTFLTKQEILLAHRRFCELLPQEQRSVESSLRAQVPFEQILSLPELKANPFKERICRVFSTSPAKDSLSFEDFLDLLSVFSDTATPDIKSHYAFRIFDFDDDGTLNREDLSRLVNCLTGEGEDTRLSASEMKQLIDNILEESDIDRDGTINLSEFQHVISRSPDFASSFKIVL

[2] = molecular target: T2, CIB1-(His)6 : F-αIIb peptide (Homo sapiens, UniProt Q99828); experiment: MST competitive binding study
T2 construct: made in house
T2 sequence (Q99828 1-191): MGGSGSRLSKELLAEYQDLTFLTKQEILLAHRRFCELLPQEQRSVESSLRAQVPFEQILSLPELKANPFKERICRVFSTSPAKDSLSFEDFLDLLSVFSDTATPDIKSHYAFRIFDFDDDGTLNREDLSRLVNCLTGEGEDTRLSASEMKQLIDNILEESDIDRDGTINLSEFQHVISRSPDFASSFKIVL
Protocol: We sought to resolve this discrepancy by performing a competition binding study similar to the conditions of the FP HTS assay by utilizing the F-αIIb probe.
Figure 4 MST competitive binding assay. We selected 200 nM F-αIIb and a CIB1 concentration of 4 μM and tested both compounds. […] Panel (B) highlights the concentration range in which we observe different activities between the two compounds.
The binding affinity of the compounds to the CIB1-(His)6 protein in the presence of αIIb peptide was evaluated using FITC-labeled αIIb as well. Following manufacturer’s recommendation,[66] we first determined a minimum concentration of F-αIIb by performing a titration of the fluorophore (1 μM, 1:2, 8-points; final concentration range of 7.8 nM to 1 μM) in a 10 μL assay volume. Solutions were placed in standard capillaries and evaluated for the fluorescent signal using the Monolith NT.115 instrument. […] CIB1-(His)6 protein was titrated in a 2-fold dilution series (16-points, final concentration range of 15 nM to 500 μM), at a final volume of 12.5 μL. An equal volume of [2×] […] Solutions were placed in standard capillaries, incubated for approximately 1 h, and evaluated for a fluorescent signal with 50% LED excitation power, 20, 40, or 60% MST power (low, medium, high, respectively), MST on-time of 30 s, and off-time of 5 s.
Compounds were titrated in a 2-fold dilution series (16 points, final concentration range of 6.1 nM to 200 μM) and mixed with an equal volume CIB1-(His)6 protein and F-αIIb peptide (final concentrations of 4 μM and 200 nM, respectively). Solutions were incubated for 1 h at RT, then placed in standard capillaries, and evaluated for fluorescent signal (in triplicate) at the following parameters: 50% LED excitation power, 40% MST power, MST on-time of 30 s, and off-time of 5 s using Monolith NT.115 instrument. Dissociation constant (Kd) values were calculated by fitting the thermophoresis signal at 20 s of the thermograph using the MO Affinity Analysis software (Nanotemper Technologies, Munich, Germany) and confirmed using Graphpad Prism 7.

washed human platelets = experiment: Human platelet aggregation assay (thrombin-induced); type: cell-based; settings: for inhibition at 10 µM: Homo sapiens, Platelet, single concentration of 10 μM (n = 3), thrombin; for Thrombin Assay 10 µM (%): platelet aggregation inhibition at 10 µM
Source text: A classical challenge in target-based drug discovery is moving from biochemical to cellular assay and the essential step of determining if the compounds of interest can perform in a cellular context. After characterization of the compounds in a series of biochemical assay formats, our next step was to assess their activity in a cellular environment. Our previous studies have shown that the interaction of the cytoplasmic domain of integrin αIIbβ3, a key regulator of platelet aggregation, with CIB1, is involved in downstream signaling in platelet activation and aggregation. We sought to determine whether our candidate compounds were inhibiting this interaction by evaluating them for platelet function in a human platelet aggregation assay. We prepared platelet-rich plasma (PRP) and washed the platelets as previously described[44] and then performed a platelet aggregation assay using the washed platelet suspensions (2 × 10^8/platelets/mL) followed by the recording of aggregation traces (see Materials and Methods Section). To induce platelet aggregation, 0.03 U/mL of thrombin, a physiological agonist of platelet activation, was used.
Figure 6 Effect of compounds on human platelet activation. Representative platelet aggregation tracings of washed human platelet suspensions pretreated for 30 min at 37 °C with vehicle (DMSO) or compounds at indicated concentrations followed by activation with thrombin (0.03–0.1 U/mL). Panel (A): NCGC00071855. Panel (B–D): NCGC00351170. Panel (E): CD62P exposure was in the presence of NCGC00351170. Data represents mean ± SEM, n = 4 individual experiments; ns = non significant *P < 0.05, ***P < 0.001, ****P < 0.0001.
Whole blood was drawn by venipuncture from healthy adult volunteers (of both gender and race) with informed consent. Approval was obtained from the institutional review boards of Thomas Jefferson University, according to the Declaration of Helsinki. Blood was collected in acidified citrate dextrose as an anticoagulant. Platelet-rich plasma (PRP) and washed platelets were prepared, as previously described.[44] Platelet aggregation was performed using washed platelet suspensions containing 2 × 10^8 platelets/mL using a Chrono-Log Lumi-Aggregometer (Chrono-Log), as described previously.[11] Aggregation traces were recorded by using Aggrolink software (Chrono-Log). Thrombin-induced P-selectin (CD62P) exposure was performed using Accuri C6 flowcytometer (BD Bioscience) as described previously.[11]
Figure S9: Effect of compounds on human platelet activation. Representative platelet aggregation
tracings of washed human platelet suspensions treated with vehicle (DMSO) or indicated
compounds at 10 μM for 30 minutes at 37 °C followed by activation with thrombin (0.03U/mL).

[3] = In vitro ADME: PAMPA permeability
[4] = In vitro ADME: solubility; type: physicochemical; settings: read-out: Solubility
CIB1-(His)6 = molecular target: T3, CIB1-(His)6 (Homo sapiens, UniProt Q99828); experiment: Microscale thermophoresis (MST) protein and small-molecule binding
T3 construct: made in house
T3 sequence (Q99828 1-191): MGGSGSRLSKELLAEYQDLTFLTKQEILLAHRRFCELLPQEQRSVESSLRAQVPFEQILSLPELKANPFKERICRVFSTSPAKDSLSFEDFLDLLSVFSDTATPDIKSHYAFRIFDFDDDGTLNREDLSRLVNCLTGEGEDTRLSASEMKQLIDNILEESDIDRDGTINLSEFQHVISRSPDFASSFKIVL
Protocol: Determining a direct measurement of a molecule’s binding interaction with its target is a vital parameter for characterizing a chemical probe. We employed microscale thermophoresis (MST) for this purpose, leveraging its sensitivity and capacity to deliver quantitative data on the binding interaction.[35] […] We began by testing increasing amounts of the compound(s) and incubating them with the fluorescently labeled CIB1-(His)6, followed by the detection of the MST traces on the NT automated instrument (for more details see Materials and Methods Section). […] We were able to rule out compound interference with the histidine tag on CIB1 and/or the fluorophore used for the MST assay by testing the compounds with a fluorescently labeled hexa-histidine peptide (Figure S8B).
The binding affinity of the compounds to the CIB1-(His)6 protein was evaluated using microscale thermophoresis (MST). The recombinant protein was labeled with a fluorophore using Monolith His-tag labeling RED-tris-NTA second Generation kit (Nanotemper Technologies, Munich, Germany) following the manufacturer’s protocol. Compounds were titrated in a 2-fold dilution series (16 points, final concentration range of 6.1 nM to 200 μM) and incubated with the same volume of 50 nM (final concentration; 25 nM RED-tris-NTA) labeled recombinant protein for 30 min at RT (20 μL final assay volume). […] The dissociation constant (Kd) values were calculated by fitting the thermophoresis signal at 20 s of the thermograph using the MO Affinity Analysis software (Nanotemper Technologies, Munich, Germany) and confirmed using GraphPad Prism.

[5] = molecular target: T4, CIB1 and αIIb interaction (GST-CIB1 : F-αIIb peptide) (Homo sapiens, UniProt Q99828); experiment: FP assay, 384-well format (screen); type: binding
T4 construct: made in house; host or cells: BL-21 plus RIL cells (E. coli)
T4 sequence (Q99828 1-191): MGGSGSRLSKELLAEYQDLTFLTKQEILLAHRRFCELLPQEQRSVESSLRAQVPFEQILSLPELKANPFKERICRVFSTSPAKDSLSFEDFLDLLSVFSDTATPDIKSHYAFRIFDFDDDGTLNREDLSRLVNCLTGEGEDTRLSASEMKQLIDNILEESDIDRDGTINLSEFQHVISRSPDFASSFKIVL

[6] = In vitro ADME: RLM stability; settings: rat liver microsomes; read-out: Rat Liver Microsome Stability (t1/2)
[7] = molecular target: T4, CIB1 and αIIb interaction (GST-CIB1 : F-αIIb peptide); experiment: FP assay, 96-well format (assay development); type: binding; settings: GST-CIB1 1 μM, F-αIIb peptide 100 nM, pre-incubated 1 h, read-out: half maximal inhibitory concentration (IC50)
CIB1-(His)6 protein = molecular target: T5, CIB1-(His)6 protein (UniProt Q99828 9-191); experiment: MST; 200 nM F-αIIb with CIB1-(His)6 titrated 15 nM to 500 μM (16 points); about 1 h; medium (40%) MST power, Monolith NT.115; settings: both partners purified
T5 construct: source: purified using a Ni-NTA resin column
T5 sequence: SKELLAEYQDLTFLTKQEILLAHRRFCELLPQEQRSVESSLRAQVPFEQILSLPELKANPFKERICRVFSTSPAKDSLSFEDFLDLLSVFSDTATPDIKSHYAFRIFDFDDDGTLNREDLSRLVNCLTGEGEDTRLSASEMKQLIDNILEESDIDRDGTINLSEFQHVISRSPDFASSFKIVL

[8] = molecular target: T6, F-scrambled αIIb-peptide (FITC-labeled scrambled control peptide); settings: both partners purified
T6 construct: scrambled order of the αIIb peptide's residues; also called labeled scrambled-peptide; scrambled peptide; source: synthetic peptide (custom synthesized, Peptide 2.0, purity 95.37%)
T6 peptide: Ac-RKLFVKVMFWRLNGAK-{FITC″}

[9] = molecular target: B1; settings: both partners purified
[10] = molecular target: B2; settings: both partners purified
[11] = molecular target: B2; experiment: fluorescence polarisation; competition, 384-well plate; GST-CIB1 1 or 2 μM, F-αIIb 50 nM, unlabeled αIIb peptide 16-point 1:2 dilution (3.05 nM to 100 μM), points >25 μM excluded; room temperature, 1 h; settings: both partners purified

Papp [3]: < 12.4 ×10⁻⁶ cm/s
solubility [4]: < 1 µg/mL
IC50 ([5]; 384-well FP assay, Table 1, read-out: FP assay IC50): 6.68 µM
half-life [6]: 2.34 min
Molecule: O=C(c1ccccc1C(F)(F)F)c1no[n+]([O-])c1C(=O)c1ccccc1C(F)(F)F [NCGC00351167-01]
inhibition at 10 µM (washed human platelets): 84%
Thrombin Assay 10 µM (%) (washed human platelets): 84%

IC50 [7]: 11.2 µM
IC50 ([5]; 384-well, F-αIIb 50 nM, GST-CIB1 1 or 2 μM, RT 1 h, read-out: IC50): ~2.7 µM and ~3 µM
Molecule: Ac-LVLAMWKVGFFKRNRK [unlabeled αIIb peptide, reference compound]

IC50 [10]: ~12 µM and 8.6 µM
IC50 [11]: ~2.7 µM
B3: unlabeled αIIb peptide (peptide)
peptide: Ac-LVLAMWKVGFFKRNRK
notes: integrin αIIb, stretch at the start of the cytoplasmic domain; last printed residue of the peptide; also called unlabeled peptide; source: synthetic peptide (custom synthesized, Peptide 2.0, purity >95.00%)

The next lines start with the molecule.

Molecule: O=C(c1ccc(-c2ccccc2)cc1)c1no[n+]([O-])c1C(=O)c1ccc(-c2ccccc2)cc1 [NCGC00351154-01]
activity in the qHTS assay [1]: inactive
EC50 ([2]; 200 nM F-αIIb, 4 μM CIB1-(His)6, n = 3/concentration): 29 µM
difference between the two compounds (EC50) ([2]; NCGC00351154 vs NCGC00351170): 13.8 fold
inhibition at 10 µM (washed human platelets): 16%
Thrombin Assay 10 µM (%) (washed human platelets): 16%
Papp [3]: < 3 ×10⁻⁶ cm/s
solubility [4]: 1 µg/mL (≈ 2.24 µM)
Kd (CIB1-(His)6; MST, fluorescently labeled CIB1-(His)6 50 nM, read-out: equilibrium dissociation constant (Kd)): 6.7 µM
difference in binding affinity (CIB1-(His)6; NCGC00351154 vs NCGC00351170 Kd): 2.3 fold

Molecule: B1
Kd (CIB1-(His)6 protein): 2.6 µM

Molecule: B2
EC50 [8]: 1.6 µM
EC50 [9]: ~0.2 µM

From PMC11249646, “Small-Molecule Disruptors of the Interaction between Calcium- and Integrin-Binding Protein 1 and Integrin αIIbβ3 as Novel Antiplatelet Agents” (ACS Pharmacology & Translational Science, 2024)
